This data set deals with T1, Broad substrate specificity ATP-binding cassette transporter ABCG2 (Homo sapiens, UniProt Q9UNQ0).
T1 sequence (Q9UNQ0 whole entry): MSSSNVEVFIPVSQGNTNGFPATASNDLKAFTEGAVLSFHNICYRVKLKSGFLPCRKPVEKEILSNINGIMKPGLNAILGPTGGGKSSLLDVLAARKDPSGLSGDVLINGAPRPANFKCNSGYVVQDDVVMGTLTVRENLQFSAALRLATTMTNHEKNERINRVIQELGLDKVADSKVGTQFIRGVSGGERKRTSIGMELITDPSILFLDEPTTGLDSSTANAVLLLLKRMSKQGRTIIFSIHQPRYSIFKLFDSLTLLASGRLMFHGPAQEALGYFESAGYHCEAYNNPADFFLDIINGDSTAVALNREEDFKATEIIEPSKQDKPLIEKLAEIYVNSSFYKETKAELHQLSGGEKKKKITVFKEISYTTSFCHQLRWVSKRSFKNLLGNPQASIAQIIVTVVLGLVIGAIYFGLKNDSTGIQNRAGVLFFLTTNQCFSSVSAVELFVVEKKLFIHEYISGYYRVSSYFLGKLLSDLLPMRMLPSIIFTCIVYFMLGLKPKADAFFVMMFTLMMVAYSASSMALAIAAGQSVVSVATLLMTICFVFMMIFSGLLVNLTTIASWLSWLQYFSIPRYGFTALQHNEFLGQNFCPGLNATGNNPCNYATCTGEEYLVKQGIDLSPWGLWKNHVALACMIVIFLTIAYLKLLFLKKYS
Briefly: TP_TRANSPORTER: correlation hBCRPmRNA with flavopiridol induced apoptosis resistance. It counts as functional, cell-based.

Structures are written as SMILES.

As to `CN1CC[C@H](c2c(O)cc(O)c3c(=O)cc(-c4ccccc4Cl)oc23)[C@H](O)C1` [ALVOCIDIB], the Activity entry is “substrate []”.

The record behind these values is ChEMBL document CHEMBL2074435, “Quantitative analysis of breast cancer resistance protein and cellular resistance to flavopiridol in acute leukemia patients” (Clin Cancer Res, 2003).
